System: not given
Assay: not given
Settings: J. Karnatak Univ., Sci. (1984), 29, 82-6; cited from earlier work

SMILES | anti-inflammatory and antiarthritic activity
COc1cc2nncc(Nc3cccc(Cl)c3)c2cc1OC [4-(3-chloroanilino)-6,7-dimethoxycinnoline] | some anti-inflammatory and antiarthritic activity
COc1ccc(Nc2cnnc3cc(OC)c(OC)cc23)cc1 [4-(4-methoxyanilino)-6,7-dimethoxycinnoline] | some anti-inflammatory and antiarthritic activity

Biological target: T1, VEGF receptor tyrosine kinase (Homo sapiens, UniProt P17948)
T1 construct: encoding most of the cytoplasmic domain, commencing with methionine 783 and including the termination codon; made in house; host or cells: Spodoptera frugiperda Sf21 insect cells (baculovirus); cleared Triton X100 lysate used as enzyme stock
T1 sequence (P17948 781-1338 limits assumed): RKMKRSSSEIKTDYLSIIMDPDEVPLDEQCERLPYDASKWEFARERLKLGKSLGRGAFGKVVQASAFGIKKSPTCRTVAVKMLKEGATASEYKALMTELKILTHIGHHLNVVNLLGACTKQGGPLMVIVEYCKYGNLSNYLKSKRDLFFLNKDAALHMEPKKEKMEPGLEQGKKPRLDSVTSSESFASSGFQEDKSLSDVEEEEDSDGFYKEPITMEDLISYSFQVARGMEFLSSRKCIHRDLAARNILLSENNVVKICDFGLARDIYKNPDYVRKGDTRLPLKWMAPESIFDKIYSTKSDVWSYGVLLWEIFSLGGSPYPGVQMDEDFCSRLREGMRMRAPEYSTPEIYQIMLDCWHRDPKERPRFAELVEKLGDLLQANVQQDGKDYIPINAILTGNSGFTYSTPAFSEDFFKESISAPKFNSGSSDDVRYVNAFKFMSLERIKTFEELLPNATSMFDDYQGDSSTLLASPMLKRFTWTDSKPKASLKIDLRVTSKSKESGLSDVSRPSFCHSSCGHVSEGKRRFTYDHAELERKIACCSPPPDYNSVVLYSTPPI
Assay: In vitro receptor tyrosine kinase inhibition test (VEGF receptor)
Type: biochemical
Settings: not given
Source text: (§1) (a) In Vitro Receptor Tyrosine Kinase Inhibition Test
This assay determines the ability of a test compound to inhibit tyrosine kinase activity. […] These may then be expressed in a suitable expression system to obtain polypeptide with tyrosine kinase activity. […] This recombinant construct was co-transfected into insect cells (for example Spodoptera frugiperda 21 (Sf21)) with viral DNA (eg Pharmingen BaculoGold) to prepare recombinant baculovirus.
For expression of cFlt tyrosine kinase activity, Sf21 cells were infected with plaque-pure cFlt recombinant virus at a multiplicity of infection of 3 and harvested 48 hours later. […] The suspension was centrifuged for 10 minutes at 13.000 rpm at 4° C., the supernatant (enzyme stock) was removed and stored in aliquots at −70° C. Each new batch of stock enzyme was titrated in the assay by dilution with enzyme diluent (100 mM Hepes pH 7.4, 0.2 mM Na3VO4, 0.1% v/v Triton X100, 0.2 mM dithiothreitol). For a typical batch, stock enzyme is diluted 1 in 2000 with enzyme diluent and 50 μl of dilute enzyme is used for each assay well.
(§2) A stock of substrate solution was prepared from a random copolymer containing tyrosine, for example Poly (Glu, Ala, Tyr) 6:3:1 (Sigma P3899), stored as 1 mg/ml stock in PBS at −20° C. and diluted 1 in 500 with PBS for plate coating.
(§3) On the day before the assay 100 μl of diluted substrate solution was dispensed into all wells of assay plates (Nunc maxisorp 96-well immunoplates) which were sealed and left overnight at 4° C.
(§4) On the day of the assay the substrate solution was discarded and the assay plate wells were washed once with PBST (PBS containing 0.05% v/v Tween 20) and once with 50 mM Hepes pH7.4.
Test compounds were diluted with 10% dimethylsulphoxide (DMSO) and 25 μl of diluted compound was transferred to wells in the washed assay plates. “Total” control wells contained 10% DMSO instead of compound. Twenty five microliters of 40 mM MnCl2 containing 8 μM adenosine-5′-triphosphate (ATP) was added to all test wells except “blank” control wells which contained MnCl2 without ATP. To start the reactions 50 μl of freshly diluted enzyme was added to each well and the plates were incubated at room temperature for 20 minutes. The liquid was then discarded and the wells were washed twice with PBST. […] Plates were then incubated for 20-60 minutes at room temperature until the optical density value of the “total” control wells, measured at 405 nm using a plate reading spectrophotometer, was approximately 1.0.

SMILES | activity against VEGF receptor tyrosine kinase
COCCOc1cc2nncc(Nc3cc(O)c(C)cc3F)c2cc1OC [4-(2-fluoro-5-hydroxy-4-methylanilino)-6-methoxy-7-(2-methoxyethoxy)cinnoline] | good activity
COc1cc2c(Nc3cc(O)c(C)cc3F)cnnc2cc1OCc1nccn1C [4-(2-fluoro-5-hydroxy-4-methylanilino)-6-methoxy-7-[(1-methylimidazol-2-yl)methoxy]cinnoline] | good activity
COc1cc2c(Nc3cc(O)c(C)cc3F)cnnc2cc1OCc1csc(C)n1 [4-(2-fluoro-5-hydroxy-4-methylanilino)-6-methoxy-7-[(2-methylthiazol-4-yl)methoxy]cinnoline] | good activity

The next lines start with the values.

activity against VEGF receptor tyrosine kinase | SMILES
good activity | COCCOc1cc2nncc(Nc3cc(O)c(Cl)cc3F)c2cc1OC [Example 8, 4-(4-chloro-2-fluoro-5-hydroxyanilino)-6-methoxy-7-(2-methoxyethoxy)cinnoline]
good activity | COCCOc1cc2nncc(Nc3cc(O)c(Br)cc3F)c2cc1OC [Example 9, 4-(4-bromo-2-fluoro-5-hydroxyanihno)-6-methoxy-7-(2-methoxyethoxy)cinnoline]
good activity | COc1cc2c(Nc3cc(O)c(C)cc3F)cnnc2cc1OCCCN1CCOCC1 [Example 15, 4-(2-fluoro-5-hydroxy-4-methylanilino)-6-metboxy-7-(3-morpholinopropoxy)cinnoline]

Biological target: T2, epidermal growth factor (EGF) receptor tyrosine kinase (Homo sapiens, UniProt P00533)
T2 construct: made in house; host or cells: insect cells (baculovirus, as for Flt)
Assay: In vitro receptor tyrosine kinase inhibition test (EGF receptor)
Type: biochemical
Settings: not given
Source text: as §1
This assay determines the ability of a test compound to inhibit tyrosine kinase activity. DNA encoding VEGF or epidermal growth factor (EGF) receptor cytoplasmic domains may be obtained by total gene synthesis (Edwards M, International Biotechnology Lab 5(3), 19-25, 1987) or by cloning. These may then be expressed in a suitable expression system to obtain polypeptide with tyrosine kinase activity. […] In the case of the VEGF receptor Flt (Genbank accession number X51602), a 1.7 kb DNA fragment encoding most of the cytoplasmic domain, commencing with methionine 783 and including the termination codon, described by Shibuya et al (Oncogene, 1990, 5: 519-524), was isolated from cDNA and cloned into a baculovirus transplacement vector (for example pAcYM1 (see The Baculovirus Expression System: A Laboratory Guide, L. A. King and R. D. Possee, Chapman and Hall, 1992) or pAc360 or pBlueBacHis (available from Invitrogen Corporation)). This recombinant construct was co-transfected into insect cells (for example Spodoptera frugiperda 21 (Sf21)) with viral DNA (eg Pharmingen BaculoGold) to prepare recombinant baculovirus. (Details of the methods for the assembly of recombinant DNA molecules and the preparation and use of recombinant baculovirus can be found in standard texts for example Sambrook et al, 1989. Molecular cloning—A Laboratory Manual, 2nd edition, Cold Spring Harbour Laboratory Press and O'Reilly et al, 1992, Baculovirus Expression Vectors—A Laboratory Manual. W. H. Freeman and Co. New York). For other tyrosine kinases for use in assays, cytoplasmic fragments starting from methionine 806 (KDR, Genbank accession number L04947) and methionine 668 (EGF receptor, Genbank accession number X00588) may be cloned and expressed in a similar manner.
For expression of cFlt tyrosine kinase activity, Sf21 cells were infected with plaque-pure cFlt recombinant virus at a multiplicity of infection of 3 and harvested 48 hours later. Harvested cells were washed with ice cold phosphate buffered saline solution (PBS) (10 mM sodium phosphate pH7.4, 138 mM NaCl, 2.7 mM KCl) then resuspended in ice cold HNTG/PMSF (20 mM Hepes pH7.5, 150 mM NaCl, 10% v/v glycerol, 1% v/v Triton X100. 1.5 mM MgCl2, 1 mM ethylene glycol-bis(βaminoethyl ether) N,N,N′,N′-tetraacetic acid (EGTA), 1 mM PMSF (phenylmethylsulphonyl fluoride); the PMSF is added just before use from a freshly-prepared 100 mM solution in methanol) using 1 ml HNTG/PMSF per 10 million cells. The suspension was centrifuged for 10 minutes at 13.000 rpm at 4° C., the supernatant (enzyme stock) was removed and stored in aliquots at −70° C. Each new batch of stock enzyme was titrated in the assay by dilution with enzyme diluent (100 mM Hepes pH 7.4, 0.2 mM Na3VO4, 0.1% v/v Triton X100, 0.2 mM dithiothreitol). For a typical batch, stock enzyme is diluted 1 in 2000 with enzyme diluent and 50 μl of dilute enzyme is used for each assay well.
as §2, §3, §4
Test compounds were diluted with 10% dimethylsulphoxide (DMSO) and 25 μl of diluted compound was transferred to wells in the washed assay plates. “Total” control wells contained 10% DMSO instead of compound. Twenty five microliters of 40 mM MnCl2 containing 8 μM adenosine-5′-triphosphate (ATP) was added to all test wells except “blank” control wells which contained MnCl2 without ATP. […]

T2 sequence (P00533 669-1210 limits assumed): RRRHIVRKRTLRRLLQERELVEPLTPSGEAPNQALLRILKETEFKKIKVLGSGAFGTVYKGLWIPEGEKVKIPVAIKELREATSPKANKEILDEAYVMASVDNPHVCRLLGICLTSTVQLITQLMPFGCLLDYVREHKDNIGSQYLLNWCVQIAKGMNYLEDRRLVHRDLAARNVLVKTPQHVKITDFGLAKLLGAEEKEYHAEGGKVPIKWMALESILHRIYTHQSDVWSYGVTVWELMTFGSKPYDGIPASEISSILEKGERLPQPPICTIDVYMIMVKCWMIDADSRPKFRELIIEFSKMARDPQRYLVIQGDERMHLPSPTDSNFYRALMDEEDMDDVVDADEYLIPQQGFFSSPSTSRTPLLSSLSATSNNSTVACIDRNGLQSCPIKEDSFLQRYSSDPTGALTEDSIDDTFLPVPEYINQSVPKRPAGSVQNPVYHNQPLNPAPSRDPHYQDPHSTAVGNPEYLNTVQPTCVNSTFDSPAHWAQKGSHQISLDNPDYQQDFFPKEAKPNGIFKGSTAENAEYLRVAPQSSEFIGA

SMILES | activity against epidermal growth factor (EGF) receptor tyrosine kinase
COCCOc1cc2nncc(Nc3cc(O)c(C)cc3F)c2cc1OC [4-(2-fluoro-5-hydroxy-4-methylanilino)-6-methoxy-7-(2-methoxyethoxy)cinnoline] | lack of significant activity
COc1cc2c(Nc3cc(O)c(C)cc3F)cnnc2cc1OCc1nccn1C [4-(2-fluoro-5-hydroxy-4-methylanilino)-6-methoxy-7-[(1-methylimidazol-2-yl)methoxy]cinnoline] | lack of significant activity
COc1cc2c(Nc3cc(O)c(C)cc3F)cnnc2cc1OCc1csc(C)n1 [4-(2-fluoro-5-hydroxy-4-methylanilino)-6-methoxy-7-[(2-methylthiazol-4-yl)methoxy]cinnoline] | lack of significant activity

The next lines start with the values.

activity against epidermal growth factor (EGF) receptor tyrosine kinase | SMILES
lack of significant activity | COCCOc1cc2nncc(Nc3cc(O)c(Cl)cc3F)c2cc1OC [Example 8, 4-(4-chloro-2-fluoro-5-hydroxyanilino)-6-methoxy-7-(2-methoxyethoxy)cinnoline]
lack of significant activity | COCCOc1cc2nncc(Nc3cc(O)c(Br)cc3F)c2cc1OC [Example 9, 4-(4-bromo-2-fluoro-5-hydroxyanihno)-6-methoxy-7-(2-methoxyethoxy)cinnoline]
lack of significant activity | COc1cc2c(Nc3cc(O)c(C)cc3F)cnnc2cc1OCCCN1CCOCC1 [Example 15, 4-(2-fluoro-5-hydroxy-4-methylanilino)-6-metboxy-7-(3-morpholinopropoxy)cinnoline]

— patent US6514971B1, “Cinnoline derivatives and use as medicine” (Zeneca Limited, priority 1996, dated 2003)
